Data from patent US9061012B2, “Uses of DGAT1 inhibitors” (Novartis AG, priority 2010, dated 2015).

How the values were obtained:
[1] = test system: patients with chylomicronemia (both FCS and Type V); assay: Open-label clinical study, safety and tolerability and overall triglyceride effect in patients with chylomicronemia (FCS and Type V); type: in vivo
Experimental: (§1) An open-label, multiple-dose, parallel group clinical study is carried out to assess the safety, tolerability, pharmacokinetics and pharmacodynamics of compound 1 in twelve patients with chylomicronemia (six with FCS and six with Type V).
(§2) The safety and tolerability of multiple doses of Compound 1 in patients with chylomicronemia (both FCS and Type V), and the effect of oral Compound 1 on fasting and postprandial plasma triglycerides in the study population are determined using the following method.
(§3) The clinical study is an open-label, out-patient parallel group study to assess the safety, tolerability, pharmacokinetics and pharmacodynamics of Compound 1 administered once daily for 21 days in patients with chylomicronemia (both FCS and Type V). Six patients of each phenotype are enrolled and treated with Compound 1 at 20 mg per day for 21 days. Following a screening period of up to 90 days, eligible patients undergo a 7-day baseline period, a 21-day treatment period, a 14-day follow-up period after last treatment day and a study completion evaluation.
The enrolling criteria for Type V patients is a screening baseline of greater than or equal to 1000 mg/dL fasting triglycerides (TG), and a documented history of heterozygous lipoprotein lipase deficiency. […]

Triton rat = assay: Plasma triglycerides after Intralipid and Triton WR-1339 in a model of impaired triglyceride clearance; type: in vivo, rat (male Sprague Dawley); conditions: for Plasma TG at 90 min: 90 min after Triton WR-1339 100 mg/kg i.v.; for Plasma TG at 90 min / Plasma TG at 120 min / Pre-Triton TG: compound 1 at 10 mg/kg by gavage, mean ± SEM; for Plasma TG at 120 min: 120 min after Triton WR-1339 100 mg/kg i.v.; for Pre-Triton TG: before Triton WR-1339, Intralipid 10 mL/kg 30 min later
Experimental: Male Sprague Dawley rats were studied at 9 and 10 weeks of age and were overnight fasted the night prior to study. The compound treated groups received a suspension of compound 1 at 10 mg/kg administered in 0.5% methyl cellulose with 0.1% Tween-80 at […]. Vehicle treated groups were dosed in a volume-matched manner with 0.5% methyl cellulose with 0.1% Tween-80. Vehicle and compounds were made up in a single batch the day before the start of each study. Orlistat was administered as a suspension in 0.5% methyl cellulose with 0.1% Tween-80 at 4 mL/kg. Intralipid was used as a high fat meal. Triton WR-1339 (10% weight: weight) was dissolved in normal saline and dosed at 100 mg/kg (i.v.) at a volume of 1 mL/kg. A baseline blood sample was collected by tail nick into ethylenediaminetetraacetic acid-lined tubes (Sarstedt, Nümbrecht, Germany) immediately prior to administering compounds (between 0830 and 0900 hrs). Rats were gavaged with drug or vehicle (4 mL/kg) beginning at 0830 hrs. Thirty minutes later, Intralipid was gavaged at 10 mL/kg to all rats, representing t=−30 min. Again, thirty minutes later, representing time=0 min, all rats were dosed via tail vein with Triton WR-1339 (100 mg/kg and 1 mL/kg) in normal saline. Blood samples were taken at −30 minutes (immediately prior to Intralipid/water dosing), −15 minutes, 0 minutes (immediately prior to Triton WR-1339 administration), as well as at 30, 60, 90, 120, and 240 minutes following administration of Triton WR-1339. Blood samples remained on ice following collection for no longer than 30 min prior to centrifugation. Following centrifugation (10 min, 4° C., 1000×g), plasma was aliquoted for plasma TG analysis. Data are reported as means±SEM. Repeated measures two-way ANOVA was used to assess the significance of the treatment by time interaction in plasma TGs followed by Tukey's post-hoc test to compare differences among the groups. Significance was set at P<0.05 and represented as asterisks in FIG. 3.

FCS (Type I) patients = assay: Open-label clinical study, fasting and postprandial (MTT) triglycerides in FCS patients; type: in vivo, human
Experimental: as §1, §2, §3
(§4) The enrolling criteria for Type V patients is a screening baseline of greater than or equal to 1000 mg/dL fasting triglycerides (TG), and a documented history of heterozygous lipoprotein lipase deficiency. The enrolling criteria for familial chylomicronemia syndrome (FCS) patients is a screening baseline of greater than or equal to 1000 mg/dL fasting triglycerides, and a documented history of homozygous lipoprotein lipase deficiency.
(§5) Patients are seen at a screening visit, and, if found to meet enrollment criteria, are enrolled in the study. At this time they are given instructions to adhere to a very low fat diet (<15 g/day) during the duration of the study, as is the standard of care for this population. Patients are also provided with three days' worth of standardized very low fat meals that are consumed for the three days prior to baseline evaluation (Day—4, Day—3, & Day—2)
(§6) Patients arrive at the study site on Day—1 early morning after an overnight fast for a meal tolerance test (MTT) to evaluate baseline postprandial triglyceride (TG) response. The MTT is a liquid meal of approximately 700 kcal, being 13% fat, 65% carbohydrates and 22% protein. Before the MTT, and at hourly time points through 9 hours, blood samples are taken for triglyceride and other metabolic measurements. Patients are discharged after completing this assessment and return to the study site next morning (Day 1) for a blood collection approximately 24 hours post meal, before the first dose of the study drug (Compound 1 tablets) is administered.
(§7) On the morning of Day 1, patients receive the first dose of Compound 1 at the clinic site. The drug supply for remainder of the 21-day treatment period is provided to the patients, who are instructed to take the drug orally once daily approximately one hour before breakfast for 21 days. Patients are also instructed to continue adherance to a very low fat diet. Patients are then released to home.
(§8) Patients report to the study site once weekly during the treatment period for safety and pharmacokinetics assessment, drug accountability and reviewing the meal plan and food diary. Additionally, the site staff contacts patients by phone, at least once between the clinic visits to check patients' wellbeing and monitor compliance with drug administration and low-fat meals instructions.
(§9) Patients are given pre-prepared very low-fat meals again that are consumed on Day 18, 19 & 20. Patients return to the study site on Day 21 early morning after an overnight fast for a second test meal (MTT) and frequent blood samples collection to evaluate postprandial TG response. Following the MTT and associated Day 21 assessments, patients are discharged to home. They return on the morning of Day 22 for a 24 h blood sample for triglycerides.

STZ rats = assay: Plasma triglycerides after Intralipid in a model of severe hypertriglyceridemia (STZ, high fat diet); type: in vivo, rat (male Sprague Dawley); conditions: for Plasma TG at 2 hrs / Plasma TG at 4 hrs: 10 mpk oral gavage 30 min before Intralipid 10 ml/kg; for Plasma TG at 2 hrs: 2 hrs post-Intralipid; for Plasma TG at 2 hrs / Plasma TG at 4 hrs / Pre-dose TG: mean ± SEM; for Plasma TG at 4 hrs / Plasma TGs at 4 hrs compared between groups: 4 hrs post-Intralipid; for Pre-dose TG: baseline immediately before dosing, 6 h fasted, group later given 10 mpk oral, n=10/group
Experimental: Male Sprague Dawley (SD) rats at 12 wks of age were studied. Orlistat (04139-100MG) and Streptozotocin (S0130-1G) were purchased from Sigma (St. Louis, Mo.).
Compounds were suspended in vehicle (0.5% methyl cellulose with 0.1% Tween-80) to achieve a dosing volume of 4 ml/kg and dosing concentration of 10 mpk for both compound 1 and orlistat (Sigma, St. Louis, Mo.).
Two weeks into consuming a 60% high fat diet, animals were treated with a 40 mpk dose of streptozotocin (STZ given intravenously (iv) in 10 mM sodium citrate in normal saline, pH=4.5). Nine days later, animals were assigned to three experimental groups (vehicle, compound 1 at 10 mpk, or orlistat at 10 mpk) on the basis of 6 hr fasted TG concentrations (n=10/group). On the morning of the study, 14 days after animals were placed in experimental groups, animals were fasted for 6 hours, after which studies commenced at 1100 hr with baseline blood collected by tail nick into ethylenediaminetetraacetic acid-lined tubes (Sarstedt, Nümbrecht, Germany).
The baseline blood sample (80 μl) was collected immediately prior to administering compounds. Rats were orally gavaged with drug or vehicle (4 ml/kg) beginning at 1100 hrs. Thirty minutes later, Intralipid was orally gavaged at 10 ml/kg to all rats, representing t=0 hr. At 2 and 4 hrs post-Intralipid, tail nick blood samples were taken to assess plasma TGs.
Blood samples remained on ice following collection for no longer than 30 min prior to centrifugation (10 min, 4° C., 1000 g) and resulting plasma was aliquoted for plasma TG analysis.
Plasma TGs (triglycerides) (corrected for glycerol) were compared on an absolute basis, as a percent change from baseline (% TGs), and as area above baseline over 0-4 hours (AABtg0-4-h) using the Trapezoidal rule. Percent change from baseline was calculated as follows: % change from baseline=([TGs] at 2 or 4 hrs)−([TGs] at baseline)*100 [TGs] at baseline Statistical Analyses
Data are reported as means±SEM. One-way ANOVA (analysis of variance) assessed between-group differences when any comparisons that were not time-dependent were made (body weight, pre-study plasma TGs, AABtg0-4-h). To assess that the Intralipid bolus produced a significant increase in plasma TGs in the vehicle group, a repeated measures (RM) one-way ANOVA was used with Tukey's posthoc test applied to compare plasma parameter means at 2 and 4 hrs vs. pre-treatment concentrations. RM two-way ANOVA was used to assess the significance of the treatment-by-time interaction for plasma parameters (TGs and % TGs) followed by Bonferroni's t-test to compare differences among the groups. Outliers were determined using the Grubb's Test for Outliers. Significance was set at P≦0.05.

Type V patients = assay: Open-label clinical study, fasting and postprandial (MTT) triglycerides in Type V patients; type: in vivo, human
Experimental: as §1, §2, §3, §4, §5, §6, §7, §8, §9

[2] = Type I (FCS) patients, n = 6, 20 mg per day oral for 21 days, MTT
[3] = Type I (FCS) patients, n = 6, MTT before treatment
[4] = n = 6, 20 mg per day oral for 21 days, MTT

`O=C([O-])C[C@H]1CC[C@H](c2ccc(-c3ccc(Nc4ccc(C(F)(F)F)nc4)cn3)cc2)CC1.[Na+]` [Compound 1, trans-4-[4-[5-[[6-(trifluoromethyl)-3-pyridinyl]amino]-2-pyridinyl]phenyl]cyclohexane acetic acid, sodium salt] was tested, and the Safety and tolerability ([1]; all 12 patients, 20 mg daily for 3 weeks) was “safe and well tolerated”, the “Triglyceride levels after 3 weeks of treatment” value ([1]; both groups of patients (FCS and Type V), 20 mg daily) was “decreased” and the “Plasma TG at 90 min” value (Triton rat) was 290.2 ± 89.7 mg/dL. For the same compound, the “Plasma TG at 120 min” value (Triton rat) was 479.3 ± 123.4 mg/dL, the “Pre-Triton TG” value (Triton rat) was 35.6 ± 5.6 mg/dL and the “Rate of absorption of triglycerides arising from a high fat meal” value (Triton rat; conclusion from Triton rat data) was “suppresses”. For the same compound, the “Plasma TG appearance compared to vehicle and orlistat treatments” value (Triton rat; following Intralipid bolus, at 90 and 120 minutes post Triton WR-1339, P≦0.05) was “significantly decreased”, the “Fasting TG, Mean Δ from Baseline” value (FCS (Type I) patients; Type I (FCS) patients, n = 6, 20 mg per day oral for 21 days) was −38.4% and the “Postprandial Peak TG, Mean Δ from Baseline” value (FCS (Type I) patients; [2]) was −36.4%. The “Postprandial TG AUC0-9, Mean Δ from Baseline” value (FCS (Type I) patients; [2]) was −35.4%, the “Postprandial Peak TG, Mean Baseline” value (FCS (Type I) patients; [3]) was 1913.1 mg/dL and the “Postprandial TG AUC0-9, Mean Baseline” value (FCS (Type I) patients; [3]) was 15044.5 mg·h/dL. For the same compound, the “Fasting TG, Mean Baseline” value (FCS (Type I) patients; Type I (FCS) patients, n = 6, before treatment) was 1968.0 mg/dL, the “Fasting triglycerides decreased by” value (FCS (Type I) patients; patients with FCS, 20 mg daily for 3 weeks) was 38.4% and the Postprandial triglycerides (FCS (Type I) patients; patients with FCS, 20 mg daily for 3 weeks, relative to fasting TG decrease) was “reduced by a similar magnitude”. The “Triglyceride levels decreased by” value (FCS (Type I) patients; patients with FCS, to near the threshold for increased pancreatitis risk (about 1000 mg/dL)) was “about 40%”, the “Plasma TG at 2 hrs” value (STZ rats) was 494.5 ± 54.2 mg/dL and the “Plasma TG at 4 hrs” value (STZ rats) was 461.5 ± 52.5 mg/dL. For the same compound, the “Plasma TGs at 4 hrs compared between groups” value (STZ rats; 10 mpk oral) was “did not differ”, the “Plasma TGs at 2 hrs compared to vehicle and orlistat groups” value (STZ rats; 10 mpk oral, P≦0.001) was “significantly lower” and the “Pre-dose TG” value (STZ rats) was 346.1 ± 49.6 mg/dL. The “Blunting an increase in plasma triglycerides” value (STZ rats; model of severe hypertriglyceridemia) was “effective”, the “Fasting triglycerides decreased by” value (Type V patients; 20 mg daily for 3 weeks) was 23.6% and the “Triglyceride levels relative to the threshold for increased pancreatitis risk (about 1000 mg/dL)” value (Type V patients; 20 mg daily for 3 weeks) was “kept well below the threshold”. For the same compound, the Postprandial triglycerides (Type V patients; 20 mg daily for 3 weeks, relative to fasting TG decrease) was “reduced by a similar magnitude”, the “Fasting TG, Mean Δ from Baseline” value (Type V patients; n = 6, 20 mg per day oral for 21 days) was −23.6% and the “Postprandial Peak TG, Mean Δ from Baseline” value (Type V patients; [4]) was −25.8%. For the same compound, the “Postprandial TG AUC0-9, Mean Δ from Baseline” value (Type V patients; [4]) was −27.3%, the “Postprandial Peak TG, Mean Baseline” value (Type V patients; n = 6, MTT before treatment) was 835.2 mg/dL and the “Postprandial TG AUC0-9, Mean Baseline” value (Type V patients; n = 6, MTT before treatment) was 6873.0 mg·h/dL. For the same compound, the “Fasting TG, Mean Baseline” value (Type V patients; n = 6, before treatment) was 745.8 mg/dL.
With `CCCCCCCCCCC[C@@H](C[C@@H]1OC(=O)[C@H]1CCCCCC)OC(=O)[C@H](CC(C)C)NC=O` [Orlistat, reference compound] the “Plasma TG at 90 min” value (Triton rat) was 747.3 ± 203.7 mg/dL, the “Plasma TG at 120 min” value (Triton rat) was 984.9 ± 251.7 mg/dL and the “Pre-Triton TG” value (Triton rat) was 114.5 ± 13.0 mg/dL. For the same compound, the “Plasma TG at 2 hrs” value (STZ rats) was 891.8 ± 97.8 mg/dL, the “Plasma TG at 4 hrs” value (STZ rats) was 236.3 ± 37.9 mg/dL and the “Plasma TGs at 4 hrs compared between groups” value (STZ rats; 10 mpk oral) was “lower than the other 2 groups”. The “Pre-dose TG” value (STZ rats) was 288.4 ± 27.4 mg/dL.
